Solubility and time to dissolve data for two compounds are collected here from patent US7649089B2, “Biodegradable oxidized cellulose esters and their uses as microspheres” (University of Iowa Research Foundation, priority 2001, dated 2010).

One may read the solubility as the dissolved amount per volume that the medium holds.

Data set [1] can be described thus: Solubility of 5-fluorouracil in pH 7.4 phosphate buffer saline. It counts as physicochemical. Conditions: aqueous buffer, pH 7.4 PBS, read-out: solubility in pH 7.4 phosphate buffer saline solution.
Data set [2] can be described thus: Release studies of CPT microspheres in pH 7.4 PBS at 37 C, sink condition. The data set is classed as physicochemical. Conditions: free drug. The protocol: OCA was prepared from oxidized (OC, COOH content 14% w/w) by treatment with a mixture of Ac2O/HOAC/H2SO4. The preparation of OCAM was achieved from a reaction between OCA and methanol using dicyclohexylcarbodiimide and 4,4′-dimethylaminopyridine as the catalysts. OCA and OCAM microspheres containing CPT were prepared by the emulsion/solvent evaporation method using the CH2Cl2—CH3OH mixture as a solvent and polyvinyl alcohol as an emulsifier. Microspheres were characterized by IR, scanning electron and confocal microscopes, and powder X-ray diffractometry. Dissolution studies were performed in pH 7.4 phosphate buffer-saline (PBS) at 37° C.
The release studies were performed under the sink condition in pH 7.4 PBS buffer at 37.0±0.2° C. At predetermined time intervals, 5.0 ml of the release medium was withdrawn. This was immediately replaced with an equal volume of the fresh PBS solution. The removed release medium was appropriated diluted with the mobile phase and analyzed by HPLC.

Converted amounts (≈) assume the structure as drawn.

Take `O=c1[nH]cc(F)c(=O)[nH]1` [5-fluorouracil]: the solubility in data set [1] came to 14.9 mg/mL (≈ 114 mM).

In the case of `CC[C@@]1(O)C(=O)OCc2c1cc1n(c2=O)Cc2cc3ccccc3nc2-1` [free CPT, camptothecin], the time to dissolve result in data set [2] was “about 48 hours”.
